Patent US8153818B2, “Triazolyl phenyl benzenesulfonamides” (ChemoCentryx, Inc., priority 2006, dated 2012)

Target: T1, CCR9 (Homo sapiens, UniProt P51686)
T1 construct: chemokine expressing cells (such as THP-1 cells for CCR2 assay or MOLT-4 cells for CCR9 assay); host or cells: MOLT-4
T1 sequence (P51686 1-369): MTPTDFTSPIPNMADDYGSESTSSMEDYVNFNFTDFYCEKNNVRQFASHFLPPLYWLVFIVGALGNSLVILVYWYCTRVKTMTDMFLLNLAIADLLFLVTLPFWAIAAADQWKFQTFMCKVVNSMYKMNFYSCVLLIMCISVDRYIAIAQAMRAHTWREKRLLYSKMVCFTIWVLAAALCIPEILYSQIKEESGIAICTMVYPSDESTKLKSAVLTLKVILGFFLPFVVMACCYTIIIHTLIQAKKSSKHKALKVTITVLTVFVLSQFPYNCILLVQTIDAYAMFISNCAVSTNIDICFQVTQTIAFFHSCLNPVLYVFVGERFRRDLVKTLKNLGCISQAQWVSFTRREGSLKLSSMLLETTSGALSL
Assay: CCR9 activity in one of the chemotaxis, binding or calcium mobilization assays
Assay type: cell-based
Settings: assay not specified per compound
Protocol: Conventional migration assay was used to determine the efficacy of potential receptor antagonists in blocking migration mediated through chemokines (such as CCR2 or CCR9). This assay was routinely performed using the ChemoTX® microchamber system with a 5-μm pore-sized polycarbonate membrane. To begin such an assay, chemokine expressing cells (such as THP-1 cells for CCR2 assay or MOLT-4 cells for CCR9 assay) were harvested by centrifugation of cell suspension at 1000 RPM on a GS-6R Beckman centrifuge. The cell pellet was resuspended in chemotaxis buffer (HBSS with 0.1% BSA) at 10×10^6 cells/mL for CCR2 assay (5×10^6 cells/mL for CCR9 assay). Test compounds at desired concentrations were prepared from 10 mM stock solutions by serial dilutions in chemotaxis buffer. An equal volume of cells and compounds were mixed and incubated at room temperature for 15 minutes. Afterwards, 20 μL of the mixture was transferred onto the porous membrane of a migration microchamber, with 29 μL of chemokine ligand (0.1 nM chemokine MCP-1 protein for CCR2 assay or […] chemokine TECK protein for CCR9 assay) placed at the lower chamber. Following an incubation at 37° C. (90-minute for CCR2; 150-minute for CCR9), during which cells migrated against the chemokine gradient, the assay was terminated by removing the cell drops from atop the filter. To quantify cells migrated across the membrane, 5 μL of 7×CyQUANT® solution was added to each well in the lower chamber, and the fluorescence signal measured on a Spectrafluor Plus fluorescence plate reader (TECAN, Durham, N.C.). The degree of inhibition was determined by comparing migration signals between compound-treated and untreated cells. IC50 calculation was further performed by non-linear squares regression analysis using Graphpad Prism (Graphpad Software, San Diego, Calif.).
Calcium flux assay measures an increase in intracellular calcium following ligand-induced receptor activation. In the screen of chemokine antagonists, it was used as a secondary assay carried out on a FLIPR® machine (Molecular Devices, Mountain View, Calif.). To begin an assay, chemokine expressing cells (such as THP-1 cells for CCR2 assay or MOLT-4 cells for CCR9 assay) were harvested by centrifugation of cell suspension, and resuspended to 1.5×10^6 cells/mL in HBSS (with 1% fetal calf serum). Cells were then labeled with a calcium indicator dye Fluo-4 AM for 45 minutes at 37° C. with gentle shaking. Following incubation, cells were pelletted, washed once with HBSS and resuspended in the same buffer at a density of 1.6×10^6 cells/mL. One hundred microliters of labeled cells were mixed with 10 μL of test compound at the appropriate concentrations on an assay plate. Chemokine protein (MCP-1 at a final concentration of 0.1 nM for CCR2 assay or TECK at a final concentration of 25 nM for CCR9 assay) to activate the receptor. The degree of inhibition was determined by comparing calcium signals between compound-treated and untreated cells. IC50 calculations were further performed by non-linear squares regression analysis using Graphpad Prism (Graphpad Software, San Diego, Calif.). […]
In the tables below, structures and activity are provided for representative compounds described herein. Activity is provided as follows for either or both of the chemotaxis assay and/or calcium mobilization assays, described above.

Row | Structure (SMILES) | IC50 [nM]
1 | COCCN(C)Cc1nnc(-c2cc(Cl)c(F)cc2NS(=O)(=O)c2ccc(C(C)(C)C)cc2)n1C [Compound 149, 4-tert-butyl-N-(4-chloro-5-fluoro-2-(5-(((2-methoxyethyl)(methyl)amino)methyl)-4-methyl-4H-1,2,4-triazol-3-yl)phenyl)benzenesulfonamide] | < 1000
2 | CN1CCN(Cc2nnc(-c3cc(Cl)c(F)cc3NS(=O)(=O)c3ccc(C(C)(C)C)cc3)n2C)CC1 [Compound 151] | < 1000
3 | Cc1nnc(-c2cc(Cl)ccc2NS(=O)(=O)c2ccc(C(C)(C)C)cc2)n1[C@@H]1CCNC1 [Compound 73] | < 1000
4 | CC(C)Oc1ccc(S(=O)(=O)Nc2ccc(Cl)cc2-c2nncn2[C@H]2CCNC2)cc1 [Compound 134, (S)—N-(4-chloro-2-(4-(pyrrolidin-3-yl)-4H-1,2,4-triazol-3-yl)phenyl)-4-isopropoxybenzenesulfonamide] | < 1000
5 | CCc1nnc(-c2cc(Cl)ccc2NS(=O)(=O)c2ccc(C(C)(C)C)cc2)n1CC [Compound 38, 4-tert-butyl-N-(4-chloro-2-(4,5-diethyl-4H-1,2,4-triazol-3-yl)phenyl)benzenesulfonamide] | < 1000
6 | Cc1nnc(-c2cc(Cl)ccc2NS(=O)(=O)c2ccc(C(C)(C)C)cc2)n1-c1ccccc1 [Compound 4, 4-tert-butyl-N-(4-chloro-2-(5-methyl-4-phenyl-4H-1,2,4-triazol-3-yl)phenyl)benzenesulfonamide] | < 1000
7 | Cc1nnc(-c2cc(Cl)ccc2NS(=O)(=O)c2ccc(C(C)(C)C)cc2)n1C1CCOC1 (centres unmarked) [Compound 101] | < 1000
8 | Cc1nnc(-c2cc(Cl)ccc2NS(=O)(=O)c2ccc(C(C)(C)C)cc2)n1C [Compound 6, 4-tert-butyl-N-(4-chloro-2-(4,5-dimethyl-4H-1,2,4-triazol-3-yl)phenyl)benzenesulfonamide] | < 1000
9 | COCc1nnc(-c2cc(Cl)c(F)cc2NS(=O)(=O)c2ccc(C(C)(C)C)cc2)n1C(C)C [Compound 51, 4-tert-butyl-N-(4-chloro-5-fluoro-2-(4-isopropyl-5-(methoxymethyl)-4H-1,2,4-triazol-3-yl)phenyl)benzenesulfonamide] | < 1000
10 | Cn1c(CN2CCOCC2)nnc1-c1cc(Cl)ccc1NS(=O)(=O)c1ccc(C(C)(C)C)cc1 [Compound 144] | < 1000
11 | Cc1nnc(-c2cc(Cl)ccc2NS(=O)(=O)c2ccc(C(C)(C)C)cc2)n1C1CC1 [Compound 7, 4-tert-butyl-N-(4-chloro-2-(4-cyclopropyl-5-methyl-4H-1,2,4-triazol-3-yl)phenyl)benzenesulfonamide] | < 1000
12 | CCc1nnc(-c2cc(Cl)c(F)cc2NS(=O)(=O)c2ccc(C(C)(C)C)cc2)n1[C@H]1CCNC1 [Compound 88] | < 1000
13 | COCCc1nnc(-c2cc(Cl)c(F)cc2NS(=O)(=O)c2ccc(C(C)(C)C)cc2)n1C [Compound 62, 4-tert-butyl-N-(4-chloro-5-fluoro-2-(5-(2-methoxyethyl)-4-methyl-4H-1,2,4-triazol-3-yl)phenyl)benzenesulfonamide] | < 1000
14 | CC(C)(C)c1ccc(S(=O)(=O)Nc2cc(F)c(Cl)cc2-c2nncn2C2CCOC2)cc1 (centres unmarked) [Compound 120] | < 1000
15 | CC(C)n1c(-c2cc(Cl)ccc2NS(=O)(=O)c2ccc(C(C)(C)C)cc2)nnc1C(F)(F)F [Compound 86, 4-tert-butyl-N-(4-chloro-2-(4-isopropyl-5-(trifluoromethyl)-4H-1,2,4-triazol-3-yl)phenyl)benzenesulfonamide] | < 1000
16 | CC(C)(C)c1ccc(S(=O)(=O)Nc2cc(F)c(Cl)cc2-c2nncn2[C@H]2CCNC2)cc1 [Compound 109] | < 1000
17 | CC(C)(C)c1ccc(S(=O)(=O)Nc2cc(F)c(Cl)cc2-c2nncn2C2CCCNC2)cc1 (centres unmarked) [Compound 44] | < 1000
18 | CC(C)(C)c1ccc(S(=O)(=O)Nc2cc(F)c(Cl)cc2-c2nncn2C2CNC2)cc1 [Compound 85] | < 1000
19 | Cc1nnc(-c2c(NS(=O)(=O)c3ccc(C(C)(C)C)cc3)ccc(Cl)c2F)n1C [Compound 28, 4-tert-butyl-N-(4-chloro-2-(4,5-dimethyl-4H-1,2,4-triazol-3-yl)-3-fluorophenyl)benzenesulfonamide] | < 1000
20 | CC(C)c1nnc(-c2cc(Cl)ccc2NS(=O)(=O)c2ccc(C(C)(C)C)cc2)n1C(C)C [Compound 11, 4-tert-butyl-N-(4-chloro-2-(4,5-diisopropyl-4H-1,2,4-triazol-3-yl)phenyl)benzenesulfonamide] | < 1000
21 | CCn1cnnc1-c1cc(F)c(F)cc1NS(=O)(=O)c1ccc(C(C)(C)C)cc1 [Compound 22, 4-tert-butyl-N-(2-(4-ethyl-4H-1,2,4-triazol-3-yl)-4,5-difluorophenyl)benzenesulfonamide] | < 1000
22 | CNC(=O)c1nnc(-c2cc(Cl)c(F)cc2NS(=O)(=O)c2ccc(C(C)(C)C)cc2)n1C [Compound 56, 5-(2-(4-tert-butylphenylsulfonamido)-5-chloro-4-fluorophenyl)-N,4-dimethyl-4H-1,2,4-triazole-3-carboxamide] | < 1000

The next lines start with the values.

Row | IC50 [nM] | Structure (SMILES)
23 | < 1000 | Cn1c(CC(C)(C)O)nnc1-c1cc(Cl)c(F)cc1NS(=O)(=O)c1ccc(C(C)(C)C)cc1 [Compound 65, 4-tert-butyl-N-(4-chloro-5-fluoro-2-(5-(2-hydroxy-2-methylpropyl)-4-methyl-4H-1,2,4-triazol-3-yl)phenyl)benzenesulfonamide]
24 | < 1000 | Cc1nnc(-c2cc(Cl)ccc2NS(=O)(=O)c2ccc(C(C)(C)C)cc2)n1[C@H]1CCCNC1 [Compound 114]
25 | < 1000 | Cc1nnc(-c2cc(Cl)ccc2NS(=O)(=O)c2ccc(C(C)(C)C)cc2)n1C1CCOCC1 [Compound 12]
26 | < 1000 | CC(C)(C)c1ccc(S(=O)(=O)Nc2ccc(Cl)cc2-c2nncn2[C@H]2CCCNC2)cc1 [Compound 113]
27 | < 1000 | Cn1c(-c2cc(Cl)c(F)cc2NS(=O)(=O)c2ccc(C(C)(C)C)cc2)nnc1C1CCCOC1 (centres unmarked) [Compound 63]
28 | < 1000 | CC(C)n1c(-c2cc(Cl)c(F)cc2NS(=O)(=O)c2ccc(C(C)(C)C)cc2)nnc1C1CCOC1 (centres unmarked) [Compound 82]
29 | < 1000 | Cc1nnc(-c2cc(Cl)ccc2NS(=O)(=O)c2ccc(C(C)(C)C)cc2)n1[C@H]1CCNC1 [Compound 127]
30 | < 1000 | Cc1nnc(-c2cc(Cl)c(F)cc2NS(=O)(=O)c2ccc(C(C)(C)C)cc2)n1C [Compound 36, 4-tert-butyl-N-(4-chloro-2-(4,5-dimethyl-4H-1,2,4-triazol-3-yl)-5-fluorophenyl)benzenesulfonamide]
31 | < 1000 | COCc1nnc(-c2cc(Cl)ccc2NS(=O)(=O)c2ccc(C(C)(C)C)cc2)n1C(C)C [Compound 96, 4-tert-butyl-N-(4-chloro-2-(4-isopropyl-5-(methoxymethyl)-4H-1,2,4-triazol-3-yl)phenyl)benzenesulfonamide]
32 | < 1000 | Cn1cnnc1-c1cc(Cl)c(F)cc1NS(=O)(=O)c1ccc(C(C)(C)C)cc1 [Compound 76, 4-tert-butyl-N-(4-chloro-5-fluoro-2-(4-methyl-4H-1,2,4-triazol-3-yl)phenyl)benzenesulfonamide]
33 | < 1000 | CC(C)(C)c1ccc(S(=O)(=O)Nc2cc(F)c(Cl)cc2-c2nncn2[C@H]2CCOC2)cc1 [Compound 54]
34 | < 1000 | Cc1nnc(-c2cc(Cl)ccc2NS(=O)(=O)c2ccc(C(C)(C)C)cc2)n1C1CCN(S(C)(=O)=O)CC1 [Compound 93]
35 | < 1000 | C[C@H](O)c1nnc(-c2cc(Cl)c(F)cc2NS(=O)(=O)c2ccc(C(C)(C)C)cc2)n1C [Compound 60]
